Results reported in patent US11884661B2, “3-substituted propionic acids as αV integrin inhibitors” (BRISTOL-MYERS SQUIBB COMPANY, priority 2016, dated 2024).

Molecular target: T1, human αVβ6 (Homo sapiens, UniProt P06756+P18564)
T1 construct: purchased R & D systems 3817-AV
Test: human αVβ6 HTRF binding assay
Conditions: recombinant human αVβ6 integrin, FITC-conjugated fibronectin
How it was run: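 Biotinylated recombinant αVβ6 (1.25 nM final) incubated with FITC-fibronectin (5 nM) 1 h at RT, then streptavidin-terbium (0.625 nM) added and incubated overnight at RT in the dark before HTRF read. Buffer: 20 mM Tris pH 7.4, 1 mM MgCl2, 1 mM MnCl2, 0.01% Tween 20, 0.01% BSA.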

T1 sequence (P06756 31-992 limits assumed): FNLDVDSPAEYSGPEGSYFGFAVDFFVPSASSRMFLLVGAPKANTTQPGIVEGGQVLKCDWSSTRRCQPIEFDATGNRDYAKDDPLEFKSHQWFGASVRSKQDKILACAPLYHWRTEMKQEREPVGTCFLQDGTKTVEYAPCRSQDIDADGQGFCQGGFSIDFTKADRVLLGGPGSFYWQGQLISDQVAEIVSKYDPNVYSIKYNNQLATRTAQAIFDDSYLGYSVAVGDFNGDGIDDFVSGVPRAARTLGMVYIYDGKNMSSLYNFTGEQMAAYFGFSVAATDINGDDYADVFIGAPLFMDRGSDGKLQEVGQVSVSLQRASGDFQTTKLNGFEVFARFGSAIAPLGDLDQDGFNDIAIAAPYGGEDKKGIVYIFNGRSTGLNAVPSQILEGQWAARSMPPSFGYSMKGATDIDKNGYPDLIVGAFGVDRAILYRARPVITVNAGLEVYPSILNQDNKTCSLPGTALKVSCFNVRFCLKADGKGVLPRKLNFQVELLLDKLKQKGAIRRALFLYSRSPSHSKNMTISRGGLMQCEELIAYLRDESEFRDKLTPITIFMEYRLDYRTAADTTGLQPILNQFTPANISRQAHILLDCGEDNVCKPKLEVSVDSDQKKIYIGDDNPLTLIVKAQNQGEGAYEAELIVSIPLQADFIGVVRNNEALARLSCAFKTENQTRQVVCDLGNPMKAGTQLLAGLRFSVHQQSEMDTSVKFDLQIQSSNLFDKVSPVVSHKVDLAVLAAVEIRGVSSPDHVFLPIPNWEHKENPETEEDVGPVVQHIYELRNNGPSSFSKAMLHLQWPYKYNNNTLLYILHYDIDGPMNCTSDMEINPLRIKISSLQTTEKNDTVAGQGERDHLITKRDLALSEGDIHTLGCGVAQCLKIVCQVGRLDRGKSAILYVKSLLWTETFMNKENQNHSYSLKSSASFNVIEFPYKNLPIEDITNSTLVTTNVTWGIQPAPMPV
T1 sequence (P18564 22-707 limits assumed): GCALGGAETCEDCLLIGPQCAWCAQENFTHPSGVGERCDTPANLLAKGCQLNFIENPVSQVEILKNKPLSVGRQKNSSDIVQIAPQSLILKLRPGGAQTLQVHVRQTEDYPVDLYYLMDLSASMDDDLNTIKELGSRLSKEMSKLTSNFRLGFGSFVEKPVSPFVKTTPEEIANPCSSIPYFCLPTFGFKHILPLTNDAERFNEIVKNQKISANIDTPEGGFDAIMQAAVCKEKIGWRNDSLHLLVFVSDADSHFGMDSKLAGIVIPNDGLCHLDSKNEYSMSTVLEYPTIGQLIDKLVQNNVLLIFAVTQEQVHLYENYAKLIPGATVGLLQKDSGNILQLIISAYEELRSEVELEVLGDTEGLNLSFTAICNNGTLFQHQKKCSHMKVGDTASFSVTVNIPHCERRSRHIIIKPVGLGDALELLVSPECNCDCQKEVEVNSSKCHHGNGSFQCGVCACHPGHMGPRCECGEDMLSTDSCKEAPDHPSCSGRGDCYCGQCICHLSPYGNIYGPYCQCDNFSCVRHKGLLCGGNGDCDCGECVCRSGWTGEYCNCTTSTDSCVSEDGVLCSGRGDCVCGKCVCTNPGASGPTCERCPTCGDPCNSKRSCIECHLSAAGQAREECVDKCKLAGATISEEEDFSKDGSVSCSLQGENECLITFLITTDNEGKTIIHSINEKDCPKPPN

Row | Structure (SMILES) | IC50
1 | COc1ccc(C(CC(=O)O)c2nc(CCCC3CCc4cccnc4N3)cs2)cn1 (single isomer, unassigned) [Example 154, 3-(6-methoxypyridin-3-yl)-3-(4-(3-(1,2,3,4-tetrahydro-1,8-naphthyridin-2-yl)propyl)thiazol-2-yl)propanoic acid] | 0.21 µM
2 | COc1ccc(C(CC(=O)O)c2nc(CCCCc3ccc4c(n3)NCCC4)c(C)o2)cc1F (single isomer, unassigned) [Example 180, 3-(3-fluoro-4-methoxyphenyl)-3-(5-methyl-4-(4-(5,6,7,8-tetrahydro-1,8-naphthyridin-2-yl)butyl)oxazol-2-yl)propanoic acid] | 0.25 µM
3 | COc1ccc(C(CC(=O)O)c2ncc(CCCCc3ccc4c(n3)NCCC4)n2C)cc1F (single isomer, unassigned) [Example 167, 3-(3-fluoro-4-methoxyphenyl)-3-(1-methyl-5-(4-(5,6,7,8-tetrahydro-1,8-naphthyridin-2-yl)butyl)-1H-imidazol-2-yl)propanoic acid] | 0.027 µM
4 | COc1ccc(C(CC(=O)O)n2ncc(CCCc3ccc4c(n3)NCCC4)n2)cc1F (single isomer, unassigned) [Example 173, 3-(3-fluoro-4-methoxyphenyl)-3-(4-(3-(5,6,7,8-tetrahydro-1,8-naphthyridin-2-yl)propyl)-2H-1,2,3-triazol-2-yl)propanoic acid] | 0.003 µM
5 | COc1ccc(C(CC(=O)O)c2nc(CCCCc3ccc4c(n3)NCCC4)cn2C)cc1F (single isomer, unassigned) [Example 169, 3-(3-fluoro-4-methoxyphenyl)-3-(1-methyl-4-(4-(5,6,7,8-tetrahydro-1,8-naphthyridin-2-yl)butyl)-1H-imidazol-2-yl)propanoic acid] | 0.067 µM
6 | COc1ccc(C(CC(=O)O)c2nc(CCCc3ccc4c(n3)NCCC4)co2)cc1F (centres unmarked) [Example 178, 3-(3-fluoro-4-methoxyphenyl)-3-(4-(3-(5,6,7,8-tetrahydro-1,8-naphthyridin-2-yl)propyl)oxazol-2-yl)propanoic acid] | 0.0014 µM
7 | COc1ccc(C(CC(=O)O)c2csc(CCCc3ccc4c(n3)NCCC4)n2)cc1F (centres unmarked) [Example 153, 3-(3-fluoro-4-methoxyphenyl)-3-(2-(3-(5,6,7,8-tetrahydro-1,8-naphthyridin-2-yl)propyl)thiazol-4-yl)propanoic acid] | 0.054 µM
8 | COCCOc1cncc(C(CC(=O)O)n2ccc(CCCc3ccc4c(n3)NCCC4)n2)c1 (single isomer, unassigned) [Example 80, 3-(5-(2-methoxyethoxy)pyridin-3-yl)-3-(3-(3-(5,6,7,8-tetrahydro-1,8-naphthyridin-2-yl)propyl)-1H-pyrazol-1-yl)propanoic acid] | 0.0018 µM
9 | O=C(O)C[C@H](c1cnc2c(c1)OCCO2)n1ccc(CCCc2ccc3c(n2)NCCC3)n1 [Example 52, (R)-3-(2,3-Dihydro-[1,4]dioxino[2,3-b]pyridin-7-yl)-3-(3-(3-(5,6,7,8-tetrahydro-1,8-naphthyridin-2-yl)propyl)-1H-pyrazol-1-yl)propanoic acid] | 0.73 µM
10 | COc1ccc(C(CC(=O)O)c2ncc(CCCCc3ccc4c(n3)NCCC4)s2)cn1 (single isomer, unassigned) [Example 17, 3-(6-Methoxypyridin-3-yl)-3-(5-(4-(5,6,7,8-tetrahydro-1,8-naphthyridin-2-yl)butyl)thiazol-2-yl)propanoic acid] | 0.016 µM
11 | COc1cncc(C(CC(=O)O)n2nccc2CCCc2ccc3c(n2)NCCCC3)c1 (racemic) [Example 108, (±)-3-(5-methoxypyridin-3-yl)-3-(5-(3-(6,7,8,9-tetrahydro-5H-pyrido[2,3-b]azepin-2-yl)propyl)-1H-pyrazol-1-yl)propanoic acid] | 0.17 µM
12 | O=C(O)CC(c1cnc2c(c1)OCCO2)n1ccc(CCCc2ccc3c(n2)NCCC3)n1 (racemic) [Example 35, (±)-3-(2,3-Dihydro-[1,4]dioxino[2,3-b]pyridin-7-yl)-3-(3-(3-(5,6,7,8-tetrahydro-1,8-naphthyridin-2-yl)propyl)-1H-pyrazol-1-yl)propanoic acid] | 0.017 µM
13 | CN(C)C(=O)c1cncc(C(CC(=O)O)n2ccc(CCCc3ccc4c(n3)NCCC4)n2)c1 (racemic) [Example 74, (±)-3-[5-(dimethylcarbamoyl)pyridin-3-yl]-3-{3-[3-(5,6,7,8-tetrahydro-1,8-naphthyridin-2-yl)propyl]-1H-pyrazol-1-yl}propanoic acid] | 0.013 µM
14 | COc1ccc(C(CC(=O)O)c2nc(CCCC3CCc4cccnc4N3)cs2)cc1F (single isomer, unassigned) [Example 159, 3-(3-fluoro-4-methoxyphenyl)-3-(4-(3-(1,2,3,4-tetrahydro-1,8-naphthyridin-2-yl)propyl)thiazol-2-yl)propanoic acid] | 0.37 µM
15 | O=C(O)CCCNc1cc(C(CC(=O)O)n2nccc2CCCc2ccc3c(n2)NCCC3)ccn1 (racemic) [Example 79, (±)-4-{[4-(2-carboxy-1-{5-[3-(5,6,7,8-tetrahydro-1,8-naphthyridin-2-yl)propyl]-1H-pyrazol-1-yl}ethyl)pyridin-2-yl]amino}butanoic acid] | 0.3 µM
16 | COc1ccc(C(CC(=O)O)c2cc(CCCc3ccc4c(n3)NCCC4)[nH]n2)cc1F (single isomer, unassigned) [Example 115, 3-(3-Fluoro-4-methoxyphenyl)-3-(5-(3-(5,6,7,8-tetrahydro-1,8-naphthyridin-2-yl)propyl)-1H-pyrazol-3-yl)propanoic acid] | 0.097 µM
17 | O=C(O)C[C@@H](c1ccc(OCC2CC2)nc1)n1ccc(CCCc2ccc3c(n2)NCCC3)n1 [Example 112, (S)-3-(6-(cyclopropylmethoxy)pyridin-3-yl)-3-(3-(3-(5,6,7,8-tetrahydro-1,8-naphthyridin-2-yl)propyl)-1H-pyrazol-1-yl)propanoic acid] | 0.0035 µM

Continued, values first:

Row | IC50 | Structure (SMILES)
18 | 0.081 µM | CN(C)C(=O)c1ccc(C(CC(=O)O)c2nc(CCCCc3ccc4c(n3)NCCC4)cs2)cc1F (single isomer, unassigned) [Example 132, 3-(4-(dimethylcarbamoyl)-3-fluorophenyl)-3-(4-(4-(5,6,7,8-tetrahydro-1,8-naphthyridin-2-yl)butyl)thiazol-2-yl)propanoic acid]
19 | 0.31 µM | COc1ncc([C@@H](CC(=O)O)n2ccc(CCCc3ccc4c(n3)NCCC4)n2)cn1 [Example 83, (R)-3-(2-methoxypyrimidin-5-yl)-3-(3-(3-(5,6,7,8-tetrahydro-1,8-naphthyridin-2-yl)propyl)-1H-pyrazol-1-yl)propanoic acid]
20 | 0.076 µM | CN(C)C(=O)c1cccc(C(CC(=O)O)c2nc(CCCCc3ccc4c(n3)NCCC4)cs2)c1 (single isomer, unassigned) [Example 117, 3-(3-(dimethylcarbamoyl)phenyl)-3-(4-(4-(5,6,7,8-tetrahydro-1,8-naphthyridin-2-yl)butyl)thiazol-2-yl)propanoic acid]
21 | 0.595 µM | Cc1ncc(C(CC(=O)O)n2ccc(CCCc3ccc4c(n3)NCCCC4)n2)cn1 (centres unmarked) [Example 98, 3-(2-methylpyrimidin-5-yl)-3-(3-(3-(6,7,8,9-tetrahydro-5H-pyrido[2,3-b]azepin-2-yl)propyl)-1H-pyrazol-1-yl)propanoic acid]
22 | 0.014 µM | O=C(O)CC(c1ccc2nccnc2c1)c1nc(CCCCc2ccc3c(n2)NCCC3)cs1 (single isomer, unassigned) [Example 120, 3-(quinoxalin-6-yl)-3-(4-(4-(5,6,7,8-tetrahydro-1,8-naphthyridin-2-yl)butyl)thiazol-2-yl)propanoic acid]
23 | 0.037 µM | COc1ccc(C(CC(=O)O)c2nc(CCCc3ccc4c(n3)NCCC4)cs2)cc1OC (single isomer, unassigned) [Example 142, 3-(3,4-dimethoxyphenyl)-3-(4-(3-(5,6,7,8-tetrahydro-1,8-naphthyridin-2-yl)propyl)thiazol-2-yl)propanoic acid]
24 | 0.044 µM | COc1ccc(C(CC(=O)O)c2ncc(CCCc3ccc4c(n3)NCCC4)s2)cn1 (single isomer, unassigned) [Example 19, 3-(6-Methoxypyridin-3-yl)-3-(5-(3-(5,6,7,8-tetrahydro-1,8-naphthyridin-2-yl)propyl)thiazol-2-yl)propanoic acid]
25 | 0.0072 µM | Cc1ncc(C(CC(=O)O)c2nc(CCCc3ccc4c(n3)NCCC4)cs2)cn1 (single isomer, unassigned) [Example 149, 3-(2-methylpyrimidin-5-yl)-3-(4-(3-(5,6,7,8-tetrahydro-1,8-naphthyridin-2-yl)propyl)thiazol-2-yl)propanoic acid]
26 | 0.17 µM | CN(C)c1ccc(C(CC(=O)O)c2nc(CCCCc3ccc4c(n3)NCCC4)cs2)cn1 (single isomer, unassigned) [Example 121, 3-(6-(dimethylamino)pyridin-3-yl)-3-(4-(4-(5,6,7,8-tetrahydro-1,8-naphthyridin-2-yl)butyl)thiazol-2-yl)propanoic acid]
27 | 0.315 µM | COc1ncc(C(CC(=O)O)n2ncc(CCCc3ccc4c(n3)NCCC4)n2)cn1 (single isomer, unassigned) [Example 177, 3-(2-methoxypyrimidin-5-yl)-3-(4-(3-(5,6,7,8-tetrahydro-1,8-naphthyridin-2-yl)propyl)-2H-1,2,3-triazol-2-yl)propanoic acid]
28 | 0.012 µM | CN(C)C(=O)c1ccc(C(CC(=O)O)c2nc(CCCc3ccc4c(n3)NCCC4)cs2)cc1F (single isomer, unassigned) [Example 136, 3-(4-(dimethylcarbamoyl)-3-fluorophenyl)-3-(4-(3-(5,6,7,8-tetrahydro-1,8-naphthyridin-2-yl)propyl)thiazol-2-yl)propanoic acid]
29 | 0.9 µM | Cc1ncc([C@@H](CC(=O)O)n2ccc(CCCc3ccc4c(n3)NCCC4)n2)cn1 [Example 55, (R)-3-(2-Methylpyrimidin-5-yl)-3-(3-(3-(5,6,7,8-tetrahydro-1,8-naphthyridin-2-yl)propyl)-1H-pyrazol-1-yl)propanoic acid]
